Molecules are shown by their SMILES. pIC50: −log10 of the molar value.

One data set has as its target T1, Aryl hydrocarbon receptor (Homo sapiens, UniProt P35869).
T1 sequence (P35869 whole entry): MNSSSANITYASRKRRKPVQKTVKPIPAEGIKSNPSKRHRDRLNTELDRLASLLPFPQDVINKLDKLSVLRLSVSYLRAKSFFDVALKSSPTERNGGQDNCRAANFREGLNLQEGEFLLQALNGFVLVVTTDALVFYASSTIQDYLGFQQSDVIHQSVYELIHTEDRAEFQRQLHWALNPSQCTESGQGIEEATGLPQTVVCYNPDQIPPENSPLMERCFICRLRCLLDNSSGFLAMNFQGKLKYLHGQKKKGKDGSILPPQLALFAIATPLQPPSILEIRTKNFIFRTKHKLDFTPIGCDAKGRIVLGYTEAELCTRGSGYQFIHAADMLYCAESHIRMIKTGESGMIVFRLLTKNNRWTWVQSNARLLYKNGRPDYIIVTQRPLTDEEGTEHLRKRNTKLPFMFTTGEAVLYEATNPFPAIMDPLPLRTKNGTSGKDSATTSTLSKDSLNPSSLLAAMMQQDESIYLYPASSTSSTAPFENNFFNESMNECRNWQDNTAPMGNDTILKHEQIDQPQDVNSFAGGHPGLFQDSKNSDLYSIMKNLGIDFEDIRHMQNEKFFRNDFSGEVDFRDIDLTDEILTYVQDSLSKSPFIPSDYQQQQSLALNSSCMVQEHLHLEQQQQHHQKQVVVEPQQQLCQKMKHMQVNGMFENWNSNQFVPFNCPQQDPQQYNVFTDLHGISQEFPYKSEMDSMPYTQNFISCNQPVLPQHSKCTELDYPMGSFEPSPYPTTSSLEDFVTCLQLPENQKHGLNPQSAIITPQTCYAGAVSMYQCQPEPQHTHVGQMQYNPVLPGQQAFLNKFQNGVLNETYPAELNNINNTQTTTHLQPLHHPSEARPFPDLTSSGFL
Briefly: Agonist activity at aryl hydrocarbon receptor (unknown origin) expressed in HEK293T cells assessed as luciferase activity at 10 uM measured after 24 hrs. It is filed as toxicity, cell-based.
Conditions: not given; call rule not given here
In the case of `COc1cc(O)c(Cl)cc1/C=C/C(=O)c1ccc(C(F)(F)F)cc1`, the outcome was Active.
In the case of `CCOc1ccc(/C=C/C(=O)c2ccc(C(F)(F)F)cc2)c(OC)c1`, the outcome was Active.
For `COc1cc(O)ccc1/C=C/C(=O)c1ccc(C(F)(F)F)cc1`, the result was Active.

A further data set concerns the target T2, Cytochrome P450 1B1 (Homo sapiens, UniProt Q16678).
T2 sequence (Q16678 whole entry): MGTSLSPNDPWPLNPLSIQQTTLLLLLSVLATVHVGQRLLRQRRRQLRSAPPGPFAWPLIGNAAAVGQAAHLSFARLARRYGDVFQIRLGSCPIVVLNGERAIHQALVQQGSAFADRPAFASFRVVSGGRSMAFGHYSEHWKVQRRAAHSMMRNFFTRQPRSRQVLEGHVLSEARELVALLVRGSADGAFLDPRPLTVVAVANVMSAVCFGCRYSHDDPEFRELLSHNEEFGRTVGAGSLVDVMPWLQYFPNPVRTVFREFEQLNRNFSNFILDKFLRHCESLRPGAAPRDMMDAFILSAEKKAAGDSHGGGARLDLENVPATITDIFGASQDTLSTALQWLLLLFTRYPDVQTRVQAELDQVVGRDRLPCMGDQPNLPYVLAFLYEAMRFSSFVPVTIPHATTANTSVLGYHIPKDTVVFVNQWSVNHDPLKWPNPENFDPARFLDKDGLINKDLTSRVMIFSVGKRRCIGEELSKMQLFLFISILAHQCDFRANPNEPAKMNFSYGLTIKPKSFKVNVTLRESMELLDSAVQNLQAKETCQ
Briefly: Inhibition of human recombinant CYP1B1 assessed as fluorescence of resorufin.
Conditions: not given
By pIC50 is commonly meant the negative decadic logarithm of the IC50, by convention in mol/L. `CN(C)c1ccc(C(=O)/C=C/c2ccccc2)cc1`: the negative-log IC50 (pIC50) is 6.96.
As to `O=C(/C=C/c1ccccc1)c1ccc(Cl)cc1`, the pIC50 was 7.37.
As for `O=C(/C=C/c1ccccc1)c1ccc([N+](=O)[O-])cc1`, the pIC50 is 6.55.
`Cc1ccc(C(=O)/C=C/c2ccccc2)cc1`: the negative-log IC50 (pIC50) was 7.51.
In the case of `Nc1ccc(C(=O)/C=C/c2ccccc2)cc1`, the pIC50 is 5.98.
Consider `O=C(/C=C/c1ccccc1)c1ccc(Br)cc1`, for which the pIC50 is 7.44.
The same measure, in the same setting: with `O=C(/C=C/c1ccccc1)c1ccc(C(F)(F)F)cc1` the figure was 7.58; with `COc1ccc(/C=C/C(=O)c2ccc(C(F)(F)F)cc2)c(OC)c1`, 8.33.
Turning to `O=C(/C=C/c1ccccc1)c1ccc(O)cc1` [4'-HYDROXYCHALCONE], the pIC50 was 5.95.
Turning to `COc1ccc(C(=O)/C=C/c2ccccc2)cc1` [4'-METHOXYCHALCONE], the pIC50 is 6.74.
With `O=C(/C=C/c1ccccc1)c1ccccc1` [CHALCONE], the pIC50 was 6.52.

In another data set the target is T2, Cytochrome P450 1B1. Briefly: Inhibition of human CYP1B1 overexpressed in CHO cells assessed as intracellular protein inhibition measured at 10 to 100 uM after 3 hrs. It is filed as cell-based. The settings on record: dose 10-100 µM.
In the case of `O=c1cc(-c2ccccc2)oc2c1ccc1ccccc12` [ALPHA-NAPHTHOFLAVONE], the “inhibition (INH)” value was “Dose-Dependent Effect”.

Tested on in another data set: not listed separately
Briefly: Metabolic stability in human liver microsomes assessed as half life measured after 60 mins by LC-UV analysis.
Conditions: not given
It is filed as ADME, Microsome. In general terms: Liver microsomes are vesicles of endoplasmic reticulum, rich in cytochrome P450 enzymes.
The term half-life denotes the time in which the quantity being followed falls by half. For `COc1cc(O)ccc1/C=C/C(=O)c1ccc(C(F)(F)F)cc1`, the half-life stood at 35.6 min.
`COc1ccc(/C=C/C(=O)c2ccc(C(F)(F)F)cc2)c(OC)c1`: the half-life came to 28.9 min.
The same measure, in the same setting: for `C[C@]12CC[C@H]3[C@@H](CCC4=CC(=O)CC[C@@]43C)[C@@H]1CC[C@@H]2O` [TESTOSTERONE] the value was 58.2 min.

For another data set, the target named is T3, Cytochrome P450 1A2 (Homo sapiens, UniProt P05177).
T3 sequence (P05177 whole entry): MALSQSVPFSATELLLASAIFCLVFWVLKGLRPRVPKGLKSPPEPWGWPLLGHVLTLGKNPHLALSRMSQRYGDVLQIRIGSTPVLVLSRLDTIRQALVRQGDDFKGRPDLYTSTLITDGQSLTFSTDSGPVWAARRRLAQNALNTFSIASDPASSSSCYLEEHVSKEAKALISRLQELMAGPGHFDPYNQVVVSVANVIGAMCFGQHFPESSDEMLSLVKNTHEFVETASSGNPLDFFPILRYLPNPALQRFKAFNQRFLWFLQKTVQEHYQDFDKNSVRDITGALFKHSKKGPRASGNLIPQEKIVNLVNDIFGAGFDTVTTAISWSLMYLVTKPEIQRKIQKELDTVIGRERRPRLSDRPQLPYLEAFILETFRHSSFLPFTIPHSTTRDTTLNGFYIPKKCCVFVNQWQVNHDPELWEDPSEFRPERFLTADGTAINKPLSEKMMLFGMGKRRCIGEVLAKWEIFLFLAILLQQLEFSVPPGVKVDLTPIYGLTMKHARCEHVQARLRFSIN
Description: Inhibition of human recombinant CYP1A2 assessed as fluorescence of resorufin. It is filed as ADME.
Conditions: not given
As to `COc1cc(O)c(Cl)cc1/C=C/C(=O)c1ccc(C(F)(F)F)cc1`, the pIC50 was less than 4.00.
Regarding `COc1cc(OC)c(/C=C/C(=O)c2ccc(C(F)(F)F)cc2)cc1Br`, the negative logarithm of the IC50 (pIC50) was less than 4.00.
For `CCOc1ccc(/C=C/C(=O)c2ccc(C(F)(F)F)cc2)cc1`, the pIC50 is less than 4.00.
Take `COc1ccc(/C=C/C(=O)c2ccc(C(F)(F)F)cc2)cc1`: the pIC50 is less than 4.00.
As to `Cc1ccc(/C=C/C(=O)c2ccc(C(F)(F)F)cc2)c(C)c1`, the pIC50 was less than 4.00.
Still for that read-out and setting: with `CCCOc1ccc(/C=C/C(=O)c2ccc(C(F)(F)F)cc2)c(OC)c1` the figure was less than 4.00.
Consider `COc1cc(O)c(Br)cc1/C=C/C(=O)c1ccc(C(F)(F)F)cc1`, for which the pIC50 was less than 4.00.
Consider `COc1cc(OC(C)=O)ccc1/C=C/C(=O)c1ccc(C(F)(F)F)cc1`, for which the pIC50 was less than 4.00.
With `COc1cc(OC(=O)c2cccs2)ccc1/C=C/C(=O)c1ccc(C(F)(F)F)cc1`, the pIC50 was less than 4.00.
Regarding `O=C(/C=C/c1ccc(F)cc1)c1ccc(C(F)(F)F)cc1`, the pIC50 was less than 4.00.
Regarding `Cc1ccc(/C=C/C(=O)c2ccc(C(F)(F)F)cc2)cc1`, the pIC50 is less than 4.00.
With `CCOc1ccc(/C=C/C(=O)c2ccc(C(F)(F)F)cc2)c(OC)c1`, the pIC50 is less than 4.00.
Regarding `COc1cc(O)ccc1/C=C/C(=O)c1ccc(C(F)(F)F)cc1`, the pIC50 is less than 4.00.
In the case of `O=C(/C=C/c1ccc(O)cc1)c1ccc(C(F)(F)F)cc1`, the pIC50 is less than 4.00.
As to `O=C(/C=C/c1ccc(F)cc1F)c1ccc(C(F)(F)F)cc1`, the negative logarithm of the IC50 (pIC50) was less than 4.00.
`CCCOc1ccc(/C=C/C(=O)c2ccc(C(F)(F)F)cc2)cc1`: the pIC50 is less than 4.00.
Turning to `O=C(/C=C/c1ccccc1)c1ccc(C(F)(F)F)cc1`, the pIC50 is less than 4.00.
Still for that read-out and setting: with `COc1ccc(/C=C/C(=O)c2ccc(C(F)(F)F)cc2)c(OC)c1` the figure was less than 4.00.

A further data set addresses T4, Cytochrome P450 1A1 (Homo sapiens, UniProt P04798).
T4 sequence (P04798 whole entry): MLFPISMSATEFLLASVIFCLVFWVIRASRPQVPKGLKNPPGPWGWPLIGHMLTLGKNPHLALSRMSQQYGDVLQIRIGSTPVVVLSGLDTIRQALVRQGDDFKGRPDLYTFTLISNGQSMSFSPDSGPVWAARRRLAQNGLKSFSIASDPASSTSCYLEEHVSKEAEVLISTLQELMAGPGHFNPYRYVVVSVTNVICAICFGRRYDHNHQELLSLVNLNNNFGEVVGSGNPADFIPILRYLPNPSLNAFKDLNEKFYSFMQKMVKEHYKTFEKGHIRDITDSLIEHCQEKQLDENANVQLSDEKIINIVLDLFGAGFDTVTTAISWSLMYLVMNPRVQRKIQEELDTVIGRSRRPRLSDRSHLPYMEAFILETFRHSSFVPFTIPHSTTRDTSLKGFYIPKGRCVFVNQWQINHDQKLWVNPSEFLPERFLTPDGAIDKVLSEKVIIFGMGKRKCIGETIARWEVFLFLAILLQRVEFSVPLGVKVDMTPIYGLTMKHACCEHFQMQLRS
Briefly: Inhibition of human recombinant CYP1A1 assessed as fluorescence of resorufin. The data set is classed as ADME.
Conditions: not given
In the case of `O=C(/C=C/c1ccccc1)c1ccc(C(F)(F)F)cc1`, the pIC50 was 6.56.
Consider `COc1ccc(/C=C/C(=O)c2ccc(C(F)(F)F)cc2)c(OC)c1`, for which the pIC50 is 5.77.
`O=c1cc(-c2ccccc2)oc2c1ccc1ccccc12` [ALPHA-NAPHTHOFLAVONE]: the pIC50 was 8.13.

Another data set addresses T1, Aryl hydrocarbon receptor. Description: Antagonist activity at aryl hydrocarbon receptor (unknown origin) expressed in HEK293T cells assessed as luciferase activity at 10 uM measured after 24 hrs. The data set is classed as toxicity, cell-based.
Conditions: not given
Turning to `COc1ccc(/C=C/C(=O)c2ccc(C(F)(F)F)cc2)c(OC)c1`, the result was Active.

Tested on in the next data set: not listed separately
Briefly: Metabolic stability in human liver microsomes assessed as relative remaining concentration measured after 60 mins by LC-UV analysis. It is filed as ADME, Microsome. The note with it: read-out: INH.
As to `COc1cc(O)ccc1/C=C/C(=O)c1ccc(C(F)(F)F)cc1`, the remaining at 1 h stood at 21%.
Take `COc1ccc(/C=C/C(=O)c2ccc(C(F)(F)F)cc2)c(OC)c1`: the remaining at 1 h was found to be 11.8%.
On the same count and under the same terms, with `C[C@]12CC[C@H]3[C@@H](CCC4=CC(=O)CC[C@@]43C)[C@@H]1CC[C@@H]2O` [TESTOSTERONE] the figure was 43.7%.

The values are drawn from ChEMBL document CHEMBL5620387, “Discovery of 4'-trifluoromethylchalcones as novel, potent and selective hCYP1B1 inhibitors without concomitant AhR activation” (Eur J Med Chem, 2023).
